For 21 compounds, logD results are on record in the SangsterLogP compilation.

A word on the logD: it is the decadic logarithm of the distribution of all forms, ionised or not, between an organic phase and buffer at a given pH. Low values mean lower lipophilicity, high ones higher lipophilicity.

The series is described as follows: method code SF-AS, from PMID: 2985094. Particulars: pH 7.4.

For `C=COCCn1cnc2c(=N)n(C)c(=O)[nH]c21`, the pH-dependent lipophilicity (logD) was -0.24.

Turning to `Cn1c(N)c2c(ncn2Cc2ccccc2)nc1=O`, the logD was 0.07.

`COCn1cnc2c(=N)n(C)c(=O)[nH]c21` had a logD of -1.22.

`Cn1c(=O)[nH]c2ncn(CCCC(=O)c3ccc(F)cc3)c2c1=N` displayed a log distribution coefficient (logD) of -1.04.

With `Cn1c(=O)[nH]c2ncn(C)c2c1=N`, the logD is -2.27.

`C=CCn1cnc2c(=N)n(C)c(=O)[nH]c21`: the logD was -0.57.

For `CCOCCn1cnc2[nH]c(=O)n(C)c(=N)c21`, the logD is -1.1.

`COCCn1cnc2nc(=O)n(C)c(N)c21` had a logD of -1.49.

On to `COCn1cnc2nc(=O)n(C)c(N)c21`, for which the logD is -2.41.

On to `Cn1c(=O)[nH]c2ncn(CCc3ccc(Br)cc3)c2c1=N`, for which the logD is 1.25.

`Cn1c(N)c2ncn(Cc3ccccc3)c2nc1=O` registered a logD of 0.65.

`CCOC(=O)CCn1cnc2c(=N)n(C)c(=O)[nH]c21`: the pH-dependent lipophilicity (logD) is -0.45.

`CCSCCn1cnc2[nH]c(=O)n(C)c(=N)c21` had a logD of -0.13.

The compound `COCn1cnc2[nH]c(=O)n(C)c(=N)c21` showed a logD of -2.41.

Take `CCOCCn1cnc2c(N)n(C)c(=O)nc21`: the logD is -0.4.

For the compound `CCSCCn1cnc2c(=N)n(C)c(=O)[nH]c21`, the logD came to 0.

`CC(=O)OCCn1cnc2[nH]c(=O)n(C)c(=N)c21` yielded a logD of -1.2.

Regarding `COCCOCn1cnc2c(=N)n(C)c(=O)[nH]c21`, the logD was -1.52.

Compound `COCCn1cnc2c(N)n(C)c(=O)nc21` gave a logD of -0.96.

For `Cn1c(=O)[nH]c2c(ncn2CCCC(=O)c2ccc(F)cc2)c1=N`, the logD came to 0.44.

In turn, `C=COCCn1cnc2[nH]c(=O)n(C)c(=N)c21` had a logD of -0.78.
